This is an account of results in patent US5750515A, “Cancer metastasis inhibitor” (Taiho Pharmaceutical Co., Ltd., priority 1995, dated 1998).

The subject of series [1] is 4-1ST (human stomach cancer). The series can be described thus: Tumor growth inhibitory effect (4-1ST subcutaneous solid tumor in nude mice). The format is in vivo, human cells in SPF BALB/c-nu/nu male mice. The conditions noted are these: tumor weight at 3 weeks vs non-treated. The procedure:
(§1) Each of 4-1ST (human stomach cancer) and LC-6 (human lung cancer) cell lines grown subcutaneously as solid tumors in mice, were cut into rectangular pieces measuring 2 mm×2 mm×2 mm and were then transplanted subcutaneously into the right backs of SPF BALB/c-nu/nu male mice (7 week old) by use of a needle for transplantation. Using the equation shown below, the estimated volume of tumor was determined. When the estimated volume of tumor became 100-250 mm^3, the mice were allocated. To the grouped mice were administered various doses of Am 555S, 5-fluorouracil (5-FU) and Cisplatin (CDDP). […] More specifically, Am 555S was orally administered for three terms, each term consisting of five consecutive administration days and two non-administration days, 5-FU was administered intravenously through the tail vein for consecutive five days, and CDDP was administered once intravenously through the tail vein. After three weeks from the administration commencement, the mice were killed and the tumor growth inhibition rates were determined from the rate of tumor weights to that of the non-treated group, so as to determine the effect of growth inhibition of the tumor.

The test system of series [2] is TMK-1 (human stomach cancer). The series can be described thus: Experimental liver metastasis (TMK-1 human stomach cancer transplanted into the spleen of nude mice), increased life span. The format is in vivo, human cells in SPF BALB/c-nu/nu male mice. Here is the method:
(§2) The effect of cancer metastasis inhibition was measured using the compounds Re 80, Am 55S and Am 555S.
(§3) KM12L4 (human colon cancer), TMK-1 (human stomach cancer) and A549 (human lung cancer) were each transplanted into the spleen of SPF BALB/c-nu/nu male mice (7 week old) in an amount of 1×10^6 cells/mouse. This test was conducted using experimental liver metastasis models.
(§4) The test procedure followed the modified Morikawa et al method (Cancer Research, 48, 1943-1948, (1988)). That is, the in vitro cultured cells were collected using 0.25% trypsin--0.02% EDTA or 0.02% EDTA and were then washed with physiological phosphate buffer saline. After the number of the cells was counted, the cells were diluted to 10^6 cells/50 μl. Next, each mouse was incised at their left abdomen after being anesthetized with 30 mg/kg of Nembutal and then the spleen was exposed. With a 28 gauge needle attached syringe, 50 μl of the above-prepared suspension containing 1×10^6 cells/50 μl was injected into the spleen. After two minutes, two portions of blood vessels of the spleen were ligated using a Liga clip and the spleen was removed. The incision site was then closed using a kyapher suture. Each of the compounds Re 80, Am 55S and Am 555S, which is an active ingredient of the cancer metastasis inhibitor of the invention, was suspended in 5% ethanol/olive oil or in 0.5% carboxymethyl cellulose/0.5% Tween 80 (Registered Trademark, produced by Nacalai tesque Co.) and was orally administered to each mouse from next day of the transplantation. In each case, the administration was conducted for three terms, each term consisting of five consecutive administration days and two non-administration days. Evaluation was conducted using the increased life span (ILS) in comparison to the control solvent group as an evaluation index. The ILS of all-trans-retinoic acid (ATRA), known to have cancer metastasis inhibiting properties, was also measured with the same test procedure.

The test system of series [3] is genes considered to be related to cancer metastasis and infiltration. The conditions noted are these: as reported in the background art; concentration dependent manner; cited from earlier work.
Series [4] relates to KM12L4 (human colon cancer). The series can be described thus: Experimental liver metastasis (KM12L4 human colon cancer transplanted into the spleen of nude mice), increased life span. The series is classed as in vivo, human cells in SPF BALB/c-nu/nu male mice. Here is the method:
as §2, §3, §4

Series [5] deals with A549 (human lung cancer). The series is described as follows: Experimental liver metastasis (A549 human lung cancer transplanted into the spleen of nude mice), increased life span. The format is in vivo, human cells in SPF BALB/c-nu/nu male mice. Here is the method: as §2, §3, §4
In series [6] the test system is experimental liver metastasis models (KM12L4, TMK-1, A549). The series is described as follows: Effect on the experimental liver metastasis, overall (KM12L4, TMK-1 and A549 models). The series is classed as in vivo, human cells in SPF BALB/c-nu/nu male mice. The conditions noted are these: for maximum ILS as compared with all-trans-retinoic acid (ATRA) / advantage over all-trans-retinoic acid (ATRA) in ILS: comparison with ATRA, in words; for inhibition of cancer metastasis: conclusion in words; for survival time of the mouse: conclusion in words from Table 1; for maximum value of the ILS as compared with the control group: maximum over cell lines and doses of Table 1. Here is the method: as §2, §3, §4

Series [7] is described as follows: Toxicity test, oral, 3 weeks. The settings on record: consecutive 3 weeks, 6 mice. The format is in vivo, SPF ICR male mice. Here is the method: SPF ICR male mice (5 week old) were used as divided into groups each consisting of 6 mice. To the group to be administered with the compound Re 80, the group to be administered with the compound Am 55S and the group to be administered with the compound Am 555S were orally administered 2 mg/kg of the compound Re 80 per day, 640 mg/kg of the compound Am 55S per day and 16 mg/kg of the compound Am 555S per day for consecutive 3 weeks, respectively.

For series [8], the system named is LC-6 (human lung cancer). The series is described as follows: Tumor growth inhibitory effect (LC-6 subcutaneous solid tumor in nude mice). The series is classed as in vivo, human cells in SPF BALB/c-nu/nu male mice. The conditions noted are these: tumor weight at 3 weeks vs non-treated. The procedure:
as §1

Series [9] concerns 4-1ST (human stomach cancer) and LC-6 (human lung cancer). The series is described as follows: Tumor growth inhibitory effect, overall (4-1ST and LC-6). The format is in vivo, human cells in SPF BALB/c-nu/nu male mice. Here is the method: as §1
[10] abbreviates: 2 mg/kg oral, 3 terms of 5 days on/2 off.
[11] abbreviates: 8 mg/kg oral, 3 terms of 5 days on/2 off.

For `O=c1[nH]cc(F)c(=O)[nH]1` [5-FU, 5-fluorouracil, reference compound], the “Tumor Growth Inhibition Rate” value in series [1] (19 mg/kg i.v. (tail vein), consecutive five days) worked out at 50.9.

Take `CC1=C(/C=C/C(C)=C/C=C/C(C)=C/C(=O)O)C(C)(C)CCC1` [ATRA, all-trans-retinoic acid, reference compound]: the “Increased life span (ILS %)” value in series [2] (TMK-1, 8 mg/kg, same test procedure, vs control solvent group) is reported as 22%. In [3], the “expression of genes related to cancer metastasis and infiltration” value was “can prevent the expression of these genes to interdict metastasis and infiltration of cancer cells in concentration dependent manner”.

As for `C[Si](C)(C)c1cc(NC(=O)c2ccc(C(=O)O)cc2)cc([Si](C)(C)C)c1` [Am 55S, 4-[3,5-bis(trimethylsilyl)phenylcarbamoyl] benzoic acid], the “Increased life span (ILS %)” value in series [4] (po, 100 mg/kg, 120 h) came to 14%; in [4] (po, 300 mg/kg, 120 h), 42%; in series [2] (po, 100 mg/kg, 120 h), 39%; in series [2] (po, 300 mg/kg, 120 h), 30%; in series [5] (po, 100 mg/kg, 120 h), 37%; in series [5] (po, 300 mg/kg, 120 h), 6%. The “maximum ILS as compared with all-trans-retinoic acid (ATRA)” value in series [6] is listed as “higher”. Also, in [6], the “inhibition of cancer metastasis” value was “effective to inhibit cancer metastasis”. Further, the “survival time of the mouse” value in series [6] was “remarkably prolonged”. The “maximum value of the ILS as compared with the control group” value in [6] worked out at 42%. Further, the death entry in [7] (640 mg/kg per day oral) is “No death occurred”. Further, the notable side effect entry in series [7] (640 mg/kg per day oral) is “no notable side effect occurred”.

Regarding `C[Si](C)(C)c1cc(C(=O)Nc2ccc(C(=O)O)cc2)cc([Si](C)(C)C)c1` [Am 555S, 4-[3,5-bis(trimethylsilyl)phenylcarboxamide] benzoic acid], the “Increased life span (ILS %)” value was found to be 5% in [4] (KM12L4, 4 mg/kg oral, 3 terms of 5 days on/2 off, vs control solvent group); 22% in series [4] (KM12L4, 16 mg/kg oral, 3 terms of 5 days on/2 off, vs control solvent group); 59% in series [2] (TMK-1, 4 mg/kg oral, 3 terms of 5 days on/2 off, vs control solvent group); 71% in series [2] (TMK-1, 16 mg/kg oral, 3 terms of 5 days on/2 off, vs control solvent group); 57% in [5] (A549, 4 mg/kg oral, 3 terms of 5 days on/2 off, vs control solvent group); 30% in series [5] (A549, 16 mg/kg oral, 3 terms of 5 days on/2 off, vs control solvent group). Moreover, the “advantage over all-trans-retinoic acid (ATRA) in ILS” value in [6] was “marked advantages”. The “maximum ILS as compared with all-trans-retinoic acid (ATRA)” value in series [6] is given as “higher”. Besides, the “inhibition of cancer metastasis” value in series [6] is listed as “effective to inhibit cancer metastasis”. Moreover, the “survival time of the mouse” value in series [6] is reported as “remarkably prolonged”. Also, the “maximum value of the ILS as compared with the control group” value in [6] amounted to 71%. Besides, the “Tumor Growth Inhibition Rate” value in [1] (setting [10]) is 2.7; in series [1] (4 mg/kg oral, 3 terms of 5 days on/2 off) it was -4.9; in series [1] (setting [11]), 8.7; in [8] (setting [10]), 2.7; in [8] (setting [11]), 13.7. Also, in [9] (comparison in words from Table 2), the “tumor growth inhibition rates as compared with 5-FU and CDDP” value is on record as “extremely low tumor growth inhibition rates”. In addition, in series [9] (conclusion in words from Table 2), the “tumor growth inhibition activity” value is recorded as “no tumor growth inhibition activity”. The death entry in series [7] (16 mg/kg per day oral) is “No death occurred”. Besides, the notable side effect result in [7] (16 mg/kg per day oral) is “no notable side effect occurred”.

With `[NH2][Pt]([NH2])([Cl])[Cl]` [CDDP, Cisplatin, reference compound], in series [8] (7 mg/kg i.v. (tail vein), once), the “Tumor Growth Inhibition Rate” value is on record as 52.3.

Consider `CC1(C)CCC(C)(C)c2cc(C(=O)C=C(O)c3ccc(C(=O)O)cc3)c(O)cc21` [Re 80, 4-[1-hydroxy-3-oxo-3-(5,6,7,8-tetrahydro-5,5,8,8-tetramethyl-3-hydroxy-2-naphthalenyl)-1-propenyl] benzoic acid], for which the “Increased life span (ILS %)” value in series [4] (po, 0.5 mg/kg, 120 h) is 23%; in [4] (po, 2 mg/kg, 120 h) it was 34%; in series [2] (po, 0.5 mg/kg, 120 h), 36%; in [2] (po, 2 mg/kg, 120 h), 50%; in series [5] (po, 0.5 mg/kg, 120 h), 19%; in [5] (po, 2 mg/kg, 120 h), 22%. The “advantage over all-trans-retinoic acid (ATRA) in ILS” value in [6] is listed as “marked advantages”. For the same compound, the “maximum ILS as compared with all-trans-retinoic acid (ATRA)” value in series [6] is on record as “higher”. For the same compound, in series [6], the “inhibition of cancer metastasis” value is given as “effective to inhibit cancer metastasis”. Also, the “survival time of the mouse” value in [6] is listed as “remarkably prolonged”. The “maximum value of the ILS as compared with the control group” value in [6] was 50%. The death result in [7] (2 mg/kg per day oral) is on record as “No death occurred”. Also, the notable side effect result in [7] (2 mg/kg per day oral) is given as “no notable side effect occurred”.
